Publication PMC7074381, “Investigating the Antiparasitic Potential of the Marine Sesquiterpene Avarone, Its Reduced Form Avarol, and the Novel Semisynthetic Thiazinoquinone Analogue Thiazoavarone” (Marine Drugs, 2020)
Where two headings read alike, the source gives them in different places.

What was measured:
[1] = tested on: L. tropica promastigotes (MHOM/IT/2012/ISS3130); assay: promastigote susceptibility MTT assay, L. tropica; assay type: cell-based; settings: for IC50: Leishmania tropica, promastigote stage, 72 h, MTT, mean ± SD of three experiments; for SIp (L. tropica): SIp = IC50 HMEC-1/IC50 L. tropica promastigotes
Procedure: (§1) Promastigote stage of L. infantum strain MHOM/TN/80/IPT1 and L. tropica (MHOM/IT/2012/ISS3130) were cultured in Schneider’s Drosophila medium (Lonza) supplemented with 10% heat-inactivated fetal calf serum (HyClone) at 24 °C.
(§2) The complete medium used for antileishmanial activity assay was RPMI (EuroClone) supplemented with 10% heat-inactivated fetal calf serum (EuroClone), 20 mM Hepes, and 2 mM L-glutamine. To estimate the 50% inhibitory concentration (IC50), the MTT (3-[4.5-dimethylthiazol-2-yl]-2.5-diphenyltetrazolium bromide) method was used. Compounds were dissolved in DMSO and then diluted with medium to achieve the required concentrations. Drugs were placed in 96-well round-bottom microplates and seven serial dilutions made. Amphotericin B was used as the reference anti-leishmanial drug. Parasites were diluted in complete medium to 5 × 10^6 parasites/mL and 100 μL of the suspension was seeded into the plates, incubated at 24 °C for 72 h and then 20 µL of MTT solution (5 mg/mL) was added into each well for 3 h. The plates were then centrifuged, the supernatants discarded and the resulting pellets dissolved in 100 µL of lysing buffer consisting of 20% (w/v) of a solution of SDS (Sigma), 40% of N,N-dimethylformamide (Merck) in H2O. The absorbance was measured spectrophotometrically at a test wavelength of 550 nm and a reference wavelength of 650 nm. The results are expressed as IC50 which is the dose of compound necessary to inhibit parasite growth by 50%; each IC50 value is the mean ± standard deviation of separate experiments performed in duplicate.

[2] = tested on: L. infantum promastigotes (strain MHOM/TN/80/IPT1); assay: promastigote susceptibility MTT assay, L. infantum; assay type: cell-based; settings: for IC50: Leishmania infantum, promastigote stage, 72 h, MTT, mean ± SD of three experiments; for SIp (L. infantum): SIp = IC50 HMEC-1/IC50 L. infantum promastigotes
Procedure: as §1, §2

[3] = tested on: L. infantum amastigotes; assay: intracellular amastigote susceptibility assay in THP-1 macrophages; assay type: cell-based; settings: for IC50: Leishmania infantum, intracellular amastigotes in THP-1 macrophages, 72 h, mean of two experiments in triplicate; for SIa: SIa = IC50 HMEC-1/IC50 L. infantum amastigotes
Procedure: Cells were washed and infected with metacyclic L. infantum promastigotes at a macrophage/promastigote ratio of 1/10 for 24 h. Cell monolayers were then washed and incubated in the presence of test compounds for 72 h. Slides were fixed with methanol and stained with Giemsa. The percentage of infected macrophages in treated and non-treated cells was determined by light microscopy.

[4] = tested on: S. mansoni adult worm pairs; assay: adult worm pair viability assay (phenotypic score); assay type: cell-based; settings: 20 μM, 7 days
Description: (§3) A Puerto Rican strain of S. mansoni was maintained by passage through albino Biomphalaria glabrata, as the intermediate host, and ICR (CD-1) outbred female mice as previously described. Female 4 to 7-week-old mice (Envigo, Udine, Italy) were infected with 200–400 double sex S. mansoni cercariae by the tail immersion technique. Adult pairs were harvested from mice 7–8 weeks after infection by reversed perfusion of the hepatic portal system and mesenteric veins. For the viability assays, 5 couples were incubated with the compounds in 3 mL DMEM complete tissue culture medium containing 10% FBS for up to 7 days and phenotypic score was assigned as previously described. For egg-treatment, 5 worm pairs were incubated for 48 h in 3 mL complete tissue culture medium; next the parasites were removed and vehicle (DMSO) or compounds 1–3 were added to each plate containing the eggs previously laid in vitro and observed for 72 h as previously reported. Briefly, images were recorded with a BX41 Olympus microscope and a bright field objective 10× served by a SPOT RT 220-3 Diagnostic Instrument Inc camera. Egg maturation/morphological score was assigned based on the Vogel and Prata’ staging system of egg maturation.

[5] = tested on: THP-1 (human acute monocytic leukemia cells); assay: cytotoxicity MTT assay on THP-1 differentiated into macrophages; assay type: cell-based; settings: PMA-differentiated macrophages, mean of two experiments in duplicate
Procedure: (§4) The long-term human microvascular endothelial cell line (HMEC-1) was maintained in MCDB 131 medium (Invitrogen, Milan, Italy) supplemented with 10% fetal calf serum (HyClone, Celbio, Milan, Italy), 10 ng/mL of epidermal growth factor,1 µg/ml of hydrocortisone, 2 mM glutamine and 20 mM Hepes buffer (EuroClone). For the cytotoxicity assays, HMEC-1 were plated at 10^5 cells/mL in 96-well flat bottom microplates. THP-1 cells were plated at 5 × 10^5 cells/mL in 96-well flat bottom microplates and treated with 0.1 μM PMA for 48 h to achieve differentiation into macrophages. Cells were then treated with serial dilutions of test compounds and cell proliferation evaluated using the MTT assay described for promastigotes. The results are expressed as IC50, which is the dose of compound necessary to inhibit cell growth by 50%.

[6] = tested on: P. falciparum W2 (CQ-resistant) strain; assay: antiplasmodial pLDH drug susceptibility assay, asexual parasites, W2 strain; assay type: cell-based; settings: for IC50: Plasmodium falciparum, read-out: W2 IC50; for SI W2: SI = IC50 HMEC-1/IC50 P. falciparum W2
Procedure: (§5) P. falciparum cultures were carried out according to Trager and Jensen with slight modifications. The CQ-sensitive strain D10 and the CQ-resistant strain W2 were maintained at 5% hematocrit (human type A-positive red blood cells) in RPMI 1640 (EuroClone, Celbio) medium with the addition of 1% AlbuMax (Invitrogen, Milan, Italy), 0.01% hypoxanthine, 20 mM Hepes, and 2 mM glutamine at 37 °C in a standard gas mixture (1% O2, 5% CO2, and 94% N2). […] Drugs were placed in 96-well flat-bottomed microplates and serial dilutions made. Asynchronous cultures with parasitaemia of 1%–1.5% and 1% final hematocrit were aliquoted into the plates and incubated for 72 h at 37 °C. Parasite growth was determined spectrophotometrically (OD650) by measuring the activity of the parasite lactate dehydrogenase (pLDH), according to a modified version of the method of Makler in control and drug-treated cultures. The antiplasmodial activity is expressed as 50% inhibitory concentrations (IC50); each IC50 value is the mean ± standard deviation of at least three separate experiments performed in duplicate.

[7] = tested on: HMEC-1 (human microvascular endothelial cells); assay: cytotoxicity MTT assay on HMEC-1; assay type: cell-based; settings: mean ± SD of three experiments in duplicate
Procedure: as §4

[8] = tested on: P. falciparum D10 (CQ-sensitive) strain; assay: antiplasmodial pLDH drug susceptibility assay, asexual parasites, D10 strain; assay type: cell-based; settings: for IC50: Plasmodium falciparum, read-out: D10 IC50; for SI D10: SI = IC50 HMEC-1/IC50 P. falciparum D10
Procedure: as §5

[9] = tested on: Pf gametocytes stage V 3D7elo1-pfs16-CBG99; assay: gametocyte susceptibility assay (luciferase viability); assay type: cell-based, P. falciparum; settings: Plasmodium falciparum, 72 h, mean ± SD of three experiments
Procedure: The transgenic P. falciparum 3D7 strain 3D7elo1-pfs16-CBG99 expressing the Pyrophorus plagiophthalamus CBG99 luciferase under a gametocyte specific promoter was used in all the experiments. Parasites were cultured and gametocytes obtained as previously described. Late-stage gametocytes were exposed to compounds at day 11 after N-acetylglucosamine (NAG) addition. Gametocytes stages were counted in Giemsa stained smears and the percentage of stage V gametocytes was higher than 80%. Compounds were prepared by serial dilution, in 96-well plate, in complete medium. Plates were incubated for 72 h at 37 °C under 1% O2, 5% CO2, 94% N2 atmosphere. Luciferase activity was taken as measure of gametocytes viability, as previously described. Briefly, drug-treated gametocyte samples at 2% haematocrit were transferred to 96-well black microplates and D-luciferin (1 mM in citrate buffer 0.1 M, pH 5.5) was added at a 1:1 volume ratio. Luminescence measurements were performed after 10 min with 500 ms integration time using a Sinergy 4 (Biotek) microplate reader. The IC50 was extrapolated from the non-linear regression analysis of the concentration–response curve.

[10] = tested on: S. mansoni in vitro laid eggs (IVLEs); assay: in vitro laid eggs (IVLEs) maturation/morphology assay; assay type: cell-based; settings: 72 h
Description: as §3

[11] = asexual parasites, CQ-resistant W2 strain, 72 h, pLDH, mean ± SD of three experiments in duplicate
[12] = asexual parasites, CQ-sensitive D10 strain, 72 h, pLDH, mean ± SD of three experiments in duplicate

**Q.** C[C@@H]1[C@H](O)[C@@H](C)/C=C/C=C/C=C/C=C/C=C/C=C/C=C/[C@H](O[C@@H]2O[C@H](C)[C@@H](O)[C@H](N)[C@@H]2O)C[C@@H]2O[C@](O)(C[C@@H](O)C[C@@H](O)[C@H](O)CC[C@@H](O)C[C@@H](O)CC(=O)O[C@H]1C)C[C@H](O)[C@H]2C(=O)O [Amphotericin B, reference compound] was tested. Which IC50 [1] did it give?
**A.** 0.17 ± 0.04 µM

**Q.** What about the IC50 [2] of the same compound?
**A.** 0.2 ± 0.03 µM

**Q.** And the IC50 [3]?
**A.** 0.189 µM

**Q.** Which “survival of adult worm pairs” value [4] does the source give for CC1=CCC[C@H]2[C@](C)(Cc3cc(O)ccc3O)[C@@H](C)CC[C@]12C [Avarol (3), avarol] here?
**A.** 20%

**Q.** And the IC50 [1]?
**A.** 7.08 ± 1.91 µM

**Q.** And the “SIp (L. tropica)” value [1]?
**A.** 5.2

**Q.** What about the IC50 [2] of the same compound?
**A.** 7.42 ± 0.27 µM

**Q.** What about the “SIp (L. infantum)” value [2] of the same compound?
**A.** 5.0

**Q.** What about the IC50 [3] of the same compound?
**A.** 3.19 µM

**Q.** And the SIa [3]?
**A.** 11.6

**Q.** What about the SIa ([3]; listed as avarol 3) of the same compound?
**A.** greater than 10

**Q.** What about the IC50 [5] of the same compound?
**A.** 31.8 µM

**Q.** And the IC50 [6, 11]?
**A.** 1.1 ± 0.15 µM

**Q.** And the “SI W2” value [6]?
**A.** 33.5

**Q.** And the IC50 [7]?
**A.** 36.9 ± 5.79 µM

**Q.** What about the IC50 [8, 12] of the same compound?
**A.** 0.96 ± 0.24 µM

**Q.** And the “SI D10” value [8]?
**A.** 38.4

**Q.** And the IC50 [9]?
**A.** 9.3 ± 1.9 µM

**Q.** For CC1=CCC[C@H]2[C@](C)(CC3=CC(=O)C=CC3=O)[C@@H](C)CC[C@]12C [Avarone (1), avarone], which IC50 [1] is on record?
**A.** 20.3 ± 3.56 µM

**Q.** And the “SIp (L. tropica)” value [1]?
**A.** 3.1

**Q.** What about the IC50 [2] of the same compound?
**A.** 28.2 ± 0.32 µM

**Q.** And the “SIp (L. infantum)” value [2]?
**A.** 2.2

**Q.** What about the IC50 [3] of the same compound?
**A.** 7.64 µM

**Q.** What about the SIa [3] of the same compound?
**A.** 8.1

**Q.** And the IC50 [5]?
**A.** > 100 µM

**Q.** And the IC50 [6, 11]?
**A.** 2.09 ± 0.52 µM

**Q.** And the “SI W2” value [6]?
**A.** 29.8

**Q.** And the IC50 [7]?
**A.** 62.2 ± 1.98 µM

**Q.** And the IC50 [8, 12]?
**A.** 2.74 ± 0.51 µM

**Q.** And the “SI D10” value [8]?
**A.** 22.7

**Q.** And the IC50 [9]?
**A.** 15.5 ± 5.26 µM

**Q.** With CC[C@@]1(O)C(=O)OCc2c1cc1n(c2=O)Cc2cc3ccccc3nc2-1 [Camptothecin, reference compound] as the compound, how does the IC50 [7] read?
**A.** 0.018 µM

**Q.** Which results are given for CCN(CC)CCCC(C)Nc1ccnc2cc(Cl)ccc12 (stereo not drawn) [Chloroquine (CQ), Chloroquine, reference compound]?
**A.** IC50 ([6]; W2, 72 h): 0.54 µM; IC50 ([8]; D10, 72 h): 0.04 µM

**Q.** CN(C)c1ccc2nc3ccc(=[N+](C)C)cc-3sc2c1 [Methylene blue, reference compound] was tested. Which IC50 [9] did it give?
**A.** 0.155 ± 0.05 µM

**Q.** How did the “effect on adult stage viability” value [4] turn out when CC1=CCC[C@H]2[C@](C)(CC3=CC(=O)C4=C(C3=O)S(=O)(=O)CCN4)[C@@H](C)CC[C@]12C [Thiazoavarone (2), thiazoavarone] was run?
**A.** poorly effective

**Q.** What about the IC50 [1] of the same compound?
**A.** 9.52 ± 0.32 µM

**Q.** And the “SIp (L. tropica)” value [1]?
**A.** 0.35

**Q.** What about the IC50 [2] of the same compound?
**A.** 8.78 ± 0.26 µM

**Q.** And the “SIp (L. infantum)” value [2]?
**A.** 0.38

**Q.** What about the IC50 [3] of the same compound?
**A.** 4.99 µM

**Q.** What about the SIa [3] of the same compound?
**A.** 0.67

**Q.** And the IC50 [5]?
**A.** 7.41 µM

**Q.** What about the “effect on egg maturation (IVLEs)” value ([10]; 5 μM) of the same compound?
**A.** impairing eggs maturation

**Q.** What about the “effect on egg maturation (IVLEs)” value ([10]; 20 μM) of the same compound?
**A.** undeveloped and severely damaged eggs

**Q.** What about the IC50 [6, 11] of the same compound?
**A.** 0.21 ± 0.03 µM

**Q.** What about the “SI W2” value [6] of the same compound?
**A.** 15.8

**Q.** And the IC50 [7]?
**A.** 3.31 ± 1.53 µM

**Q.** And the IC50 [8, 12]?
**A.** 0.38 ± 0.15 µM

**Q.** What about the “SI D10” value [8] of the same compound?
**A.** 8.7

**Q.** What about the IC50 [9] of the same compound?
**A.** 15 ± 3.19 µM
